Reference: US11214594B2, “Antimicrobial peptide having synergistic antibacterial effect with antibiotics on multidrug resistant bacteria, and use thereof” (priority 2016, dated 2022)
≈ marks a conversion by molar mass, not a printed value. Where two headings read alike, the source gives them in different places. Where a SMILES comes first, the peptide text is derived from it.

How the values were obtained:
MDREC 1229 = assay type: cell-based, Escherichia coli
In short: (§1)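 Broth microdilution in MH medium; strains were diluted to 2×10^6 CFU per ml before plating. Peptide was serially diluted stepwise at 2:1 starting from its MIC, and MH-diluted antibiotic was then added to determine MIC. The reversed arrangement was also tested.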

E. coli = assay type: cell-based, Escherichia coli; conditions: E. coli
In short: as §1

A. baumannii [1] = test: MIC of antibiotic during combined treatment with antimicrobial peptide; assay type: cell-based, Acinetobacter baumannii; conditions: A. baumannii
In short: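 First, antibiotic solution is diluted with MH medium; next, the dilution is dispensed into wells containing peptide; finally, the orientation is swapped and MIC of each mixture determined.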

MDRPA 2003 = assay type: cell-based, Pseudomonas aeruginosa
In short: (§2)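 Each strain is brought to 2×10^6 CFU in nutrient-sufficient Mueller-Hinton medium and dispensed into wells. Peptide solutions, stepwise diluted 2:1 in the same medium, are then added. The minimal concentration preventing growth gives the MIC.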

MDRPA 2002 = assay type: cell-based, Pseudomonas aeruginosa
In short: as §2

gram-negative bacteria = test: MIC, summary statements for gram-negative bacteria; assay type: cell-based; conditions: gram-negative bacteria
In short: as §2

A. baumannii [2] = test: microbe, parasite or virus in culture; assay type: cell-based, Acinetobacter baumannii
In short: as §2

MDRAB 12035 [3] = test: microbe, parasite or virus in culture; assay type: cell-based, Acinetobacter baumannii
In short: as §2

B. subtilis = test: microbe, parasite or virus in culture; assay type: cell-based, Bacillus subtilis
In short: as §2

MDRAB 12035 [4] = test: MIC of antibiotic during combined treatment with antimicrobial peptide; assay type: cell-based, Acinetobacter baumannii
In short: as §1

[5] = with Erythromycin […] (Conc./MIC 1)
[6] = combined with peptide at 1 μg/ml
[7] = combined with peptide at 2 μg/ml
[8] = combined with peptide at 4 μg/ml
[9] = combined with peptide at 6 μg/ml
[10] = combined with peptide at 8 μg/ml
[11] = combined with peptide at 16 μg/ml
[12] = combined with peptide at 32 μg/ml
[13] = combined with peptide at 64 μg/ml
[14] = peptide treatment concentration 1 μg/ml
[15] = peptide treatment concentration 2 μg/ml
[16] = peptide treatment concentration 4 μg/ml
[17] = peptide treatment concentration 6 μg/ml
[18] = peptide treatment concentration 8 μg/ml
[19] = peptide treatment concentration 16 μg/ml
[20] = peptide treatment concentration 32 μg/ml
[21] = peptide treatment concentration 64 μg/ml

## CC[C@H](C)[C@H](NC(=O)[C@H](CCCCN)NC(=O)[C@H](Cc1c[nH]c2ccccc12)NC(=O)[C@@H](N)CCCNC(=N)N)C(=O)N[C@@H](Cc1ccccc1)C(=O)N[C@@H](CCCCN)C(=O)N[C@@H](CCCCN)C(=O)N[C@H](C(=O)N1CCC[C@H]1C(=O)N[C@@H](CCCCN)C(=O)N[C@@H](Cc1ccccc1)C(=O)N[C@@H](CC(C)C)C(=O)N[C@@H](Cc1c[nH]cn1)C(=O)N[C@@H](CO)C(=O)N[C@@H](Cc1c[nH]c2ccccc12)C(=O)N[C@@H](CCCCN)C(=O)N[C@@H](CCCCN)C(=O)N[C@@H](Cc1c[nH]c2ccccc12)C(N)=O)[C@@H](C)CC [PapMA-4, RWK IFK KIP KFL HSW KKW-NH2] (H-RWKIFKKIPKFLHSWKKW-NH2; N-terminus assumed)
MDREC 1229; [5]
  Peptide MIC: 0 µg/mL
MDREC 1229; with Linezolid 512 μg/ml (Conc./MIC 1)
  Peptide MIC: 0 µg/mL
E. coli; [5]
  Peptide MIC: 0 µg/mL
E. coli; with Linezolid […] (Conc./MIC 1)
  Peptide MIC: 0 µg/mL
E. coli; with Vancomycin 1024 μg/ml (Conc./MIC 1)
  Peptide MIC: 0 µg/mL
A. baumannii [1]; [6]
  Antibiotic MIC, Erythromycin: 32 µg/mL
  Antibiotic MIC, Linezolid: >128 µg/mL
  Antibiotic MIC, Vancomycin: >128 µg/mL
A. baumannii [1]; [7]
  Antibiotic MIC, Erythromycin: 16 µg/mL
  Antibiotic MIC, Linezolid: 64 µg/mL
  Antibiotic MIC, Vancomycin: 128 µg/mL
A. baumannii [1]; [8]
  Antibiotic MIC, Erythromycin: 8 µg/mL
  Antibiotic MIC, Linezolid: 64 µg/mL
  Antibiotic MIC, Vancomycin: 64 µg/mL
A. baumannii [1]; [9]
  Antibiotic MIC, Erythromycin: 4 µg/mL
  Antibiotic MIC, Linezolid: 32 µg/mL
  Antibiotic MIC, Vancomycin: 64 µg/mL
A. baumannii [1]; [10]
  Antibiotic MIC, Erythromycin: 4 µg/mL
  Antibiotic MIC, Linezolid: 16 µg/mL
  Antibiotic MIC, Vancomycin: 32 µg/mL
A. baumannii [1]; [11]
  Antibiotic MIC, Erythromycin: 0 µg/mL
  Antibiotic MIC, Linezolid: 0 µg/mL
  Antibiotic MIC, Vancomycin: 0 µg/mL
A. baumannii [1]; [12]
  Antibiotic MIC, Erythromycin: 0 µg/mL
  Antibiotic MIC, Linezolid: 0 µg/mL
  Antibiotic MIC, Vancomycin: 0 µg/mL
A. baumannii [1]; [13]
  Antibiotic MIC, Erythromycin: 0 µg/mL
  Antibiotic MIC, Linezolid: 0 µg/mL
  Antibiotic MIC, Vancomycin: 0 µg/mL
MDRPA 2003
  Minimal inhibitory concentration MIC: 16 µg/mL (≈ 6.51 µM)
MDRPA 2002
  Minimal inhibitory concentration MIC: 16 µg/mL (≈ 6.51 µM)
gram-negative bacteria
  Antibacterial activity (in words): comparable to papiliocin or melittin
A. baumannii [2]
  Minimal inhibitory concentration MIC: 16 µg/mL (≈ 6.51 µM)
  Peptide MIC, peptide alone: 16 µg/mL
A. baumannii [2]; A. baumannii and antibiotic-resistant strains thereof
  Antibacterial activity relative to PapMA-1: 4 times
MDRAB 12035 [3]
  Minimal inhibitory concentration MIC: 16 µg/mL (≈ 6.51 µM)
  Peptide MIC, peptide alone: 16 µg/mL
B. subtilis
  Minimal inhibitory concentration MIC: >128 µg/mL
MDRAB 12035 [4]; [14]
  Erythromycin MIC during combined treatment with peptide: 32 µg/mL
  Linezolid MIC during combined treatment with peptide: >128 µg/mL
  Vancomycin MIC during combined treatment with peptide: >128 µg/mL
MDRAB 12035 [4]; [15]
  Erythromycin MIC during combined treatment with peptide: 16 µg/mL
  Linezolid MIC during combined treatment with peptide: 128 µg/mL
  Vancomycin MIC during combined treatment with peptide: >128 µg/mL
MDRAB 12035 [4]; [16]
  Erythromycin MIC during combined treatment with peptide: 8 µg/mL
  Linezolid MIC during combined treatment with peptide: 64 µg/mL
  Vancomycin MIC during combined treatment with peptide: 128 µg/mL
MDRAB 12035 [4]; [17]
  Erythromycin MIC during combined treatment with peptide: 4 µg/mL
  Linezolid MIC during combined treatment with peptide: 64 µg/mL
  Vancomycin MIC during combined treatment with peptide: 64 µg/mL
MDRAB 12035 [4]; [18]
  Erythromycin MIC during combined treatment with peptide: 2 µg/mL
  Linezolid MIC during combined treatment with peptide: 32 µg/mL
  Vancomycin MIC during combined treatment with peptide: 64 µg/mL
MDRAB 12035 [4]; [19]
  Erythromycin MIC during combined treatment with peptide: 0 µg/mL
  Linezolid MIC during combined treatment with peptide: 0 µg/mL
  Vancomycin MIC during combined treatment with peptide: 0 µg/mL
MDRAB 12035 [4]; [20]
  Erythromycin MIC during combined treatment with peptide: 0 µg/mL
  Linezolid MIC during combined treatment with peptide: 0 µg/mL
  Vancomycin MIC during combined treatment with peptide: 0 µg/mL
MDRAB 12035 [4]; [21]
  Erythromycin MIC during combined treatment with peptide: 0 µg/mL
  Linezolid MIC during combined treatment with peptide: 0 µg/mL
  Vancomycin MIC during combined treatment with peptide: 0 µg/mL
